Experimental data published in EP4631503A1, “AVL-292 OR MK-5108 FOR USE IN THE TREATMENT OF PDAC” (priority 2024, dated 2025).
Where two headings read alike, the source gives them in different places.

How the values were obtained:
[1] = Western blot, apoptotic marker; type: cell-based; details: apoptotic gene
Description: (§1) Pane1 and HPAF II cells were seeded into a 6-well plate at 200,000 cells per well concentration. After siRNA transfection and drug treatment, whole cell lysate was prepared with CelLytic M (C2978, Sigma-Aldrich) buffer and samples were prepared with 2x Laemmli Sample Buffer (1610737, Biorad) at 20µg protein lysate. SDS PAGE was performed Mini-PROTEAN® TGX™ Precast Gels (Bio-Rad) and transferred using Trans-Blot® Turbo™ Transfer System (Bio-Rad). CDCA5 (ab192237, abcam), KIF18A (ab72417, abcam), KIF23 (HPA068831, Sigma Aldrich), TPX2 (ab252944, abeam), Aurora A (ab108353, abeam), Aurora B (ab287960, abcam), PARP (9542S, Cell signaling), […] (ab2324, abcam), β-actin (ab8227, abeam), GAPDH (ab8245, abeam), and α-tubulin (ab7291, abcam) were blotted as a primary antibody for overnight. Secondary antibodies, Goat Anti-Rabbit HRP (ab205718) and goat anti-mouse IgG-HRP (sc2005, Santa Cruz Biotechnology, Inc.) were blotted for one hour. The protein band was detected with ImageQuantTMLAS 500 (29-0050-63, GE).

[2] = test system: cleaved PRAP; assay: Western blot, apoptotic marker; type: cell-based; details: apoptotic gene
Description: as §1

[3] = MTT cell viability assay; type: cell-based; details: Homo sapiens, PANC-1, 48 h, Pane1 cells, two days
Description: Pane1 and HPAF II cells were cultured with DMEM (D0822, Sigma-Aldrich) supplemented with 10% fetal bovine serum (FBS, F7524, Sigma-Aldrich), 1% P/S (P4333, Sigma-Aldrich). For siRNA treatment, 200,000 cells for a 6well plate and 20,000 cells per well for a 96well plate were seeded. siRNAs were purchased in Origene, CDCA5 (SR314367, Origene), KIF18A (SR313129, Origene), KIF23 (SR306300, Origene), TPX2 (SR307905, Origene), and cells were transfected by Lipofectamine® RNAiMAX (13778-075, Invitrogen) for two days. Small molecules which repositioned were purchased by AVL-292 (HY-18012, MCE), BCI-50 (HY-17553, MCE), MK-5108 (HY-13252, MCE), AZD1208 (HY-15604, MCE), SKA-31 (HY111655, MCE), Y-26763 (HY-101069, MCE), Estropipate (HY-B1361, MCE), Tiquizium (sc-474386, Santa Cruz), Acyclovir (HY-17422, MCE), and Cyproterone acetate (HY-13604, MCE) and dissolved into DMSO. Drugs were treated to cells for two days at 10µM. Cell viability was measured by MTT assay (M6494, ThermoFisher) by following the manufacturer's instructions. O.D values were detected with a microplate reader (Hidex Sense Beta Plus).

[4] = test system: HPAF II; assay: MTT cell viability assay; type: cell-based; details: Homo sapiens, 48 h
Description: Pane1 and HPAF II cells were cultured with DMEM (D0822, Sigma-Aldrich) supplemented with 10% fetal bovine serum (FBS, F7524, Sigma-Aldrich), 1% P/S (P4333, Sigma-Aldrich). […] Drugs were treated to cells for two days at 10µM. Cell viability was measured by MTT assay (M6494, ThermoFisher) by following the manufacturer's instructions. O.D values were detected with a microplate reader (Hidex Sense Beta Plus).

[5] = test system: KIF23; assay: Western blot, protein expression level; type: cell-based; details: cells, 10 µM, in words
Description: as §1

[6] = test system: AURKB; assay: Western blot, protein expression level; type: cell-based; details: cells, 10 µM, in words
Description: as §1

[7] = test system: CDCA5; assay: Western blot, protein expression level; type: cell-based; details: cells, 10 µM, in words
Description: as §1

[8] = test system: KIF18A; assay: Western blot, protein expression level; type: cell-based; details: Pane1 cells, 10 µM, in words
Description: as §1

[9] = test system: AURKA; assay: Western blot, protein expression level; type: cell-based; details: cells, 10 µM, in words
Description: as §1

[10] = test system: TPX2; assay: Western blot, protein expression level; type: cell-based; details: cells, 10 µM, in words
Description: as §1

[11] = taken orally, phase I trial; cited from earlier work
[12] = test system: PDAC; details: phase II clinical trials; cited from earlier work

| Structure (SMILES) | protein expression level of Cas9 [1] | protein expression level of cleaved PRAP [2] | viability at 10 µM [3] | viability at 10 µM ([4]; HPAF-II) | viability at 10 µM ([4]; HPAF II cells, 10µM, two days, read-out: viability) | KIF23 expression change [5] | AURKB expression change [6] | CDCA5 expression change [7] | KIF18A expression change [8] | AURKA expression change [9] | TPX2 expression change [10] | tolerability in patients [11] | extended survival, average [12] |
| --- | --- | --- | --- | --- | --- | --- | --- | --- | --- | --- | --- | --- | --- |
| C=CC(=O)Nc1cccc(Nc2nc(Nc3ccc(OCCOC)cc3)ncc2F)c1 [AVL-292] | increased | increased | 60.7% | 71.6% |  |  |  |  |  |  |  |  |  |
| O=C(O)[C@]1(Cc2cccc(Nc3nccs3)n2)CC[C@@H](Oc2cccc(Cl)c2F)CC1 [MK-5108] | increased | increased | 45.8% |  | 69.5% | over-expressed | no obvious effect | over-expressed | over-expressed | over-expressed | over-expressed | well tolerated |  |
| CN(C)C(=N)N=C(N)N [Metformin] |  |  |  |  |  |  |  |  |  |  |  |  | 0.8 months |
